Source: US10952436B2, “Microbiocidal quinoline (thio)carboxamide derivatives” (SYNGENTA PARTICIPATIONS AG, priority 2017, dated 2021)

What was measured:
[1] = system: Botryotinia fuckeliana (Botrytis cinerea); assay: Botryotinia fuckeliana (Botrytis cinerea)/Liquid Culture (Gray Mould); assay type: cell-based; details: 200 ppm, liquid culture, compared to untreated control, 3-4 days after application, read-out: control of Botryotinia fuckeliana
[2] = system: Magnaporthe grisea (Pyricularia oryzae); assay: microbe, parasite or virus in culture; assay type: cell-based; details: read-out: control of Magnaporthe grisea
[3] = system: Fusarium culmorum; assay: microbe, parasite or virus in culture; assay type: cell-based; details: read-out: control of Fusarium culmorum
[4] = system: Monographella nivalis (Microdochium nivale); assay: Monographella nivalis (Microdochium nivale)/Liquid Culture (Foot Rot Cereals); assay type: cell-based; details: 200 ppm, liquid culture, compared to untreated control, 4-5 days after application, read-out: control of Monographella nivalis
[5] = system: Glomerella lagenarium (Colletotrichum lagenarium); assay: Glomerella lagenarium (Colletotrichum lagenarium)/Liquid Culture (Anthracnose); assay type: cell-based; details: Colletotrichum orbiculare; 200 ppm; liquid culture, compared to untreated control, 3-4 days after application; read-out: control of Glomerella lagenarium
[6] = system: Fusarium culmorum; assay: whole plant or invertebrate; assay type: in vivo; details: in Triticum aestivum, read-out: control of Fusarium culmorum

SMILES | inhibition of growth at 200 ppm [1] | melting point | inhibition of growth at 200 ppm [2] | inhibition of growth at 200 ppm [3] | inhibition of growth at 200 ppm [4] | inhibition of growth at 200 ppm [5] | pest or weed control at 200 ppm [6]
CC(Cc1ccccc1)(CC(F)(F)F)C(=O)Nc1cnc2cccc(F)c2c1 (stereo not drawn) [Compound E-49, 2-benzyl-4,4,4-trifluoro-N-(5-fluoro-3-quinolyl)-2-methyl-butanamide] | ≥ 80% | 140 to 142 °C | ≥ 80% | ≥ 80% | – | – | –
CC(C)CC(C)(Cc1ccccc1)C(=O)Nc1cnc2c(Cl)cccc2c1 (stereo not drawn) [Compound E-9, 2-benzyl-N-(8-chloro-3-quinolyl)-2,4-dimethyl-pentanamide] | ≥ 80% | 163 to 165 °C | ≥ 80% | ≥ 80% | ≥ 80% | ≥ 80% | –
C=C(C)C[C@](C)(Cc1ccccc1)C(=O)Nc1cnc2c(F)cccc2c1 [Compound F-22, (2R)-2-benzyl-N-(8-fluoro-3-quinolyl)-2,4-dimethyl-pent-4-enamide] | ≥ 80% | 133 to 135 °C | – | ≥ 80% | ≥ 80% | ≥ 80% | –
COCN(C(=O)C(C)(Cc1ccccc1)CC(F)(F)F)c1cnc2c(F)cccc2c1 (stereo not drawn) [Compound E-33, 2-benzyl-4,4,4-trifluoro-N-(8-fluoro-3-quinolyl)-N-(methoxymethyl)-2-methyl-butanamide] | ≥ 80% | 108 to 110 °C | ≥ 80% | ≥ 80% | – | ≥ 80% | –
C=C(CC)CC(C)(Cc1ccccc1)C(=O)Nc1cnc2c(F)cccc2c1 (stereo not drawn) [Compound E-54, 2-benzyl-N-(8-fluoro-3-quinolyl)-2-methyl-4-methylene-hexanamide] | ≥ 80% | 118 to 120 °C | ≥ 80% | ≥ 80% | – | ≥ 80% | –
C=C(C)CC(Cc1ccccc1)C(=O)Nc1cnc2c(F)cccc2c1 (stereo not drawn) [Compound E-94, 2-benzyl-N-(8-fluoro-3-quinolyl)-4-methyl-pent-4-enamide] | ≥ 80% | 170 to 172 °C | – | ≥ 80% | ≥ 80% | ≥ 80% | –
CC(Cc1ccccc1)C(=O)Nc1cnc2c(F)cccc2c1 (stereo not drawn) [Compound E-31, N-(8-fluoro-3-quinolyl)-2-methyl-3-phenyl-propanamide] | ≥ 80% | 188 to 190 °C | ≥ 80% | ≥ 80% | – | ≥ 80% | –
CC(Cc1ccccc1)(CC(F)(F)F)C(=O)Nc1cnc2cc(F)ccc2c1 (stereo not drawn) [Compound E-52, 2-benzyl-4,4,4-trifluoro-N-(7-fluoro-3-quinolyl)-2-methyl-butanamide] | ≥ 80% | 180 to 182 °C | ≥ 80% | ≥ 80% | ≥ 80% | ≥ 80% | –
C=C(C)CC(Cc1ccccc1)C(=O)Nc1cc2cccc(F)c2nc1C (stereo not drawn) [Compound E-92, 2-benzyl-N-(8-fluoro-2-methyl-3-quinolyl)-4-methyl-pent-4-enamide] | ≥ 80% | 97 to 99 °C | – | ≥ 80% | – | ≥ 80% | ≥ 80%
CN(C(=O)C(C)(Cc1ccccc1)CC(F)(F)F)c1cnc2c(F)cccc2c1 (stereo not drawn) [Compound E-42, 2-benzyl-4,4,4-trifluoro-N-(8-fluoro-3-quinolyl)-N,2-dimethyl-butanamide] | ≥ 80% | 137 to 139 °C | ≥ 80% | ≥ 80% | – | ≥ 80% | –
